These results are taken from patent US11021687B2, “Production of differentiated enteroendocrine cells and insulin producing cells” (Massachusetts Institute of Technology, priority 2016, dated 2021).

Test [1] concerns differentiated cell colonies. The conditions noted are these: continuing culture of Islet-like Insulin expression cell colonies.
Test [2] relates to intestinal stem cells. Put plainly: Ngn3 mRNA expression during EEC differentiation. Format: cell-based, mouse. On the procedure: “Ngn3 Assay” as used herein is an assay used to determine the extent of expression of Ngn3 in cells, such as cells subjected to a differentiation protocol. In an exemplary Ngn3 Assay, RNA is isolated from cells that have been cultured according to a differentiation protocol, and quantitative real-time PCR is performed using commercially available primers and probes (such as Taqman probes) to determine an extent of Ngn3 expression in the cells.
(§1) Organoids or differentiated cells were harvested and RNA was extracted using RNeasy Micro Kit (Qiagen) according to the manufacturer's instruction. Quantitative real-time PCR was performed with QuantiTect Probe PCR kit (Qiagen) using commercially available primers and TaqMan probes (Life Technologies).
There has been prior speculation that Ngn3 positive secretory progenitors differentiate to EECs (Genes Dev. 2002).

Test [3] relates to intestinal stem cells. Nature of the test: mRNA expression (qPCR) of ChgA and other lineage markers in differentiated intestinal stem cells. Type of test: cell-based, mouse. The conditions noted are these: for expression of Goblet cell marker (Muc2) and Paneth cell marker (Lyz1): 24-well validation; for expression of enteroendocrine cell marker ChgA: multiple conditions (FIG. 6); for EEC marker ChgA expression / expression of markers for K cell (Gip), L cell (Gcg), and I cell (Cck): 5 days 2-step protocol, Tubastatin A in step 1, Tranylcypromine in both steps.
Excerpt: “mRNA ChgA Expression Assay” refers to an assay used to determine the relative ChgA mRNA expression level in a cell population. For example, the assay can determine ChgA mRNA expression level of a differentiated cell population following treatment with agents being tested, as compared to an untested population of post-natal stem cells. In an example of an mRNA ChgA Expression Assay, the cells were collected and the RNA is extracted from the cells using an RNA extraction kit (such as RNeasy Mini kit, Qiagen). The ChgA expression level is then assessed by Quantitative real-time PCR using a one-step qPCR kit (such as QuantiTech Probe PCR kit, Qiagen) and ChgA primers and probes (such as commercially available Taqman probe for mouse ChgA, Life Technologies).
as §1
Cells were then cultured with EGF, Noggin, and DAPT (END), as well as small molecules. After 2-3 days of differentiation, the cells lysed and ChgA expression was measured by qRT-PCR.
Small molecules were further validated using a 24-well plate culture and the differentiation system. […] The expression of markers of secretory lineage cells including goblet cells (Muc2), enteroendocrine cells (ChgA), and Paneth cells (Lyz1) were measured.

Test [4] deals with gastrointestinal stem cells. Put plainly: Insulin / Nkx6.1 mRNA expression (qPCR), 3-stage conversion to insulin producing cells. Format: cell-based, mouse. The conditions noted are these: dose response.
Excerpt: “mRNA Insulin Expression Assay” refers to an assay used to determine the relative insulin mRNA expression level of a cell population. For example, the assay can determine the insulin mRNA level expressed in a cell population treated to increase the expression of insulin in the cells, as compared to an untreated population of cells. In an exemplary mRNA Insulin Expression Assay, the cells were collected and the RNA is extracted from the cells using an RNA extraction kit (such as RNeasy Mini kit, Qiagen). The insulin expression level is then assessed by Quantitative real-time PCR using a one-step qPCR kit (such as QuantiTech Probe PCR kit, Qiagen) and Ins1 or Ins2 primers and probes (such as the commercially available TaqMan probe for mouse Ins1 and Ins2, Life Technologies). The relative insulin mRNA expression can be determined relative to a baseline or other marker, such as Hprt mRNA expression level or other baseline marker.
as §1
Based on the protocol to convert gastrointestinal stem cells into insulin producing cells, a 3-stage process was developed, specifically, Day 0-1 as Stage 1, Day 1-3 as Stage 2, Day 3-5 as Stage 3. After Stage 3, the cells turn on significant level of Insulin expression as indicated by Ins-EGFP expression and qPCR for Insulin mRNA expression. Optionally, the cells can be further cultured for 1-2 weeks, as Stage 4. For each stage, a set of specific combination of small molecules (and/or growth factors) were added. The objective was to optimize the reprogramming protocol to increase insulin expression, specifically Insulin mRNA expression for each stage, by screening and testing new small molecules (or growth factors).
Background: Quantitative PCR measures a nucleic acid by following its amplification.

Test [5] relates to intestinal stem cells. Put plainly: ChgA immunostaining of EEC differentiation from intestinal stem cells. The conditions noted are these: organoid culture (ENR) with Notch inhibitor DAPT (ENRD). Type of test: cell-based, mouse. How it is done: “ChgA Immunostaining Assay” as used herein is an assay used to determine the fraction of cells in a cell population that express ChgA by an immunostaining method. In an example of a ChgA immunostaining assay, a cell culture medium in which a cell population has been treated is removed, and the sample is washed with PBS. Organoids or cell colonies cultured in Matrigel are fixed directly by adding 4% PFA and incubating for 20 mins at room temperature. The Matrigel is then mechanically disrupted, and the cells are transferred to BSA-coated Eppendorf tubes. Samples are washed with PBS, permeabilized with 0.25% Triton X-100 for 30 minutes, and stained with primary antibody against Chromogranin A (e.g. anti-chromogranin A, sc-13090, Santa Cruz) and appropriate secondary antibodies (e.g. Alexa Fluor conjugated secondary antibodies, such as Alexa Fluor 594 conjugated Donkey anti-Rabbit antibody, A-21207; Life Technologies). Images are acquired by confocal microscopy.
Differentiated cell colonies were collected by gently pipetting into a 1.5 ml protein Lobind Eppendorf tube. Cell culture medium was removed, and samples were washed with PBS. Organoids or cell colonies cultured in Matrigel were fixed by directly adding 4% PFA and incubating for 10-30 min at room temperature. Matrigel was then mechanically disrupted, and cells were transferred into BSA-coated Eppendorf tubes. […]

[6] abbreviates: 2 days, added after removal of R-spondin1.
[7] abbreviates: ENRD conditions, 2 days of differentiation.

Each structure is given as a SMILES string.

With `O=C(NOC[C@H](O)CO)c1ccc(F)c(F)c1Nc1ccc(I)cc1F` [PD0325901, N-[(2R)-2,3-Dihydroxypropoxyl]-3,4-difluoro-2-[(2-fluoro-4-iodophenyl)amino]-benzamide], in test [1], the effect of removal result is recorded as “could be removed without much influence”. Besides, in the test with intestinal stem cells [2] (setting [6]), the Ngn3 expression result is “further decreased”. Moreover, the “expression of Goblet cell marker (Muc2) and Paneth cell marker (Lyz1)” value in the test with intestinal stem cells [3] (END conditions) is recorded as “not similarly increased”. In addition, the “expression of enteroendocrine cell marker ChgA” value with intestinal stem cells [3] is given as “specifically increased”.
Turning to `CN1CCc2c(c3ccccc3n2Cc2ccc(C(=O)NO)cc2)C1.Cl` [Tubastatin A, N-Hydroxy-4-(2-methyl-1,2,3,4-tetrahydro-pyrido[4,3-b]indol-5-ylmethyl)benzamide hydrochloride], the Ngn3 expression entry in the test on intestinal stem cells [2] (setting [7]) is “increase”. In addition, in the test with intestinal stem cells [3], the “EEC marker ChgA expression” value is recorded as “increased”; the “expression of markers for K cell (Gip), L cell (Gcg), and I cell (Cck)” value is on record as “also increased”. Besides, in the test with intestinal stem cells [3] (setting [7]), the ChgA expression entry is “decreased”.
As to `N[C@@H]1C[C@H]1c1ccccc1` (racemic) [Tranylcypromine], the Ngn3 expression result in the test with intestinal stem cells [2] (setting [7]) is “increase”. In the test with intestinal stem cells [3] (2-step protocol, 5 days), the “expression of Goblet cell (Muc2) and Paneth cell (Lyz1) markers” value was “significantly decreased”. Further, in the test on intestinal stem cells [3], the “EEC marker ChgA expression” value is “increased”; the “expression of markers for K cell (Gip), L cell (Gcg), and I cell (Cck)” value is given as “also increased”. Besides, the ChgA expression result in the test with intestinal stem cells [3] (setting [7]) is given as “increased”.
As to `C[C@H](NC(=O)Cc1cc(F)cc(F)c1)C(=O)N[C@H](C(=O)OC(C)(C)C)c1ccccc1` [DAPT, N—[N-(3,5-Difluorophenacetyl)-L-alanyl]-S-phenylglycine t-butyl ester], the “concentration of highest activity / optimal concentration in promoting Insulin expression” value in test [4] was 5 µM. In addition, in test [1], the effect of removal result was “could be removed without much influence”. Further, the “stem cells turned into EECs” value in the test on intestinal stem cells [5] is reported as 5%-10%.
On to `O=C(NC[C@H](O)CO)c1ccncc1Nc1ccc(I)cc1F` [AS703026], for which the Ngn3 expression entry with intestinal stem cells [2] (setting [6]) is recorded as “further decreased”. In addition, the “expression of Goblet cell marker (Muc2) and Paneth cell marker (Lyz1)” value with intestinal stem cells [3] (END conditions) is on record as “not similarly increased”. In addition, in the test on intestinal stem cells [3] (96-well screening, END conditions, 2-3 days), the ChgA expression result is reported as “increased”. Moreover, in the test with intestinal stem cells [3], the “expression of enteroendocrine cell marker ChgA” value is “specifically increased”.
